Reference: patent publication US20200131123A1, “INDOLE-FORMAMIDE DERIVATIVE, PREPARATION METHOD THEREFOR AND USE THEREOF IN MEDICINE” (Jiangsu Hengrui Medicine Co., Ltd., priority 2017, published 2020)
Read-outs that look alike come from different tables or passages of the source.

Key:
[1] = biological target: T1, RORγ LBD (Homo sapiens, UniProt P51449); experiment: LanthaScreen TR-FRET RORγ co-activation system, effect on in vitro activity of RORγ; assay type: biochemical; conditions: for EC50: TR-FRET RORγ co-activation, for agonist the value refers to EC50, read-out: EC50/IC50 a (nM): EC50 (agonist); for Type: agonist or inverse agonist of RORγ
T1 construct: RORγ LBD was diluted with the complete buffer D to a concentration of 1 ng/μL; GST; purchased AB Vector
T1 sequence (P51449 269-508 limits assumed): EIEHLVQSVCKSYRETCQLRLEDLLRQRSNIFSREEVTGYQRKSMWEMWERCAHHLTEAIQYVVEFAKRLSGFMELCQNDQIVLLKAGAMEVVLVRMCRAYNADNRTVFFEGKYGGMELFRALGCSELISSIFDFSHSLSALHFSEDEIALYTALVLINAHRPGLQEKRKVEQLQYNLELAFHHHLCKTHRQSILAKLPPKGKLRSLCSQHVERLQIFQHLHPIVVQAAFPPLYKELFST
Protocol: 1. LanthaScreen® TR-FRET RORγ co-activation system (Life Technologies)
A complete buffer D (complete TR-FRET Coregulator) (Life Technologies) was formulated first, containing a final concentration of 5 mM DTT. The final concentration of DMSO was 2%. The test compound was serially diluted to 2× final concentration in the complete buffer D containing 2% of DMSO, and the maximum dose was […]. The test compound was added to the test wells of a 384-well plate (PerkinElmer) in 10 μl/well. Two parallel control wells were set up for each test compound at the same concentration. 4×RORγ LBD (AB Vector) was formulated. RORγ LBD was diluted with the complete buffer D to a concentration of 1 ng/μL, and added to the test wells of 384-well plate in 5 μl/well. The negative control well was 5 μL of complete buffer D without RORγ LBD. A mixed solution comprising 0.6 μM of fluorescein-D22 (4×) and 8 nM of terbium(Tb)-labeled anti-GST antibody (4×) (Life Technologies) was formulated with the complete buffer D, and 5 μL of the mixed solution was added to the 384-well plate. The total reaction system was 20 μL. The 384-well plate was gently shaken on a shaker, and incubated at room temperature in the dark for 2-4 hours.
Fluorescence readings were determined with Tecan Infinite M1000. The logarithmic curve of the ratio of the emission wavelength of 520 nm/495 nm to the concentration of the compound was plotted by GraphPad Prism 6.0 software. EC50/IC50 value of the test compound was calculated.

[2] = test system: IL-17A; experiment: IL-17A enzyme-linked immune quantitative assay in cytostim-activated human PBMC; assay type: cell-based; conditions: 72 h; IL-17A in supernatant of human PBMC, 3 days after drug treatment
Protocol: 1. Human peripheral blood mononuclear cells (PBMC) (Zenbio)
5. Human IL-17 enzyme-linked immunosorbent kit (R&D System)
Frozen human peripheral blood mononuclear cells (PBMC) were rapidly resuscitated in pre-warmed lymphocyte culture medium, and centrifuged at 1000 rpm for 10 min. The cell culture supernatant was removed. The cells were gently suspended in TexMACS medium and counted. The T cell activation reagent cytostim (10 μl/ml) was added in proportion to the cell suspension. Then, the cells were seeded in a 96-well cell culture plate at a density of 1×10^5 peripheral blood mononuclear cells/well. The test compounds were diluted in gradient with TexMACS medium, and added respectively to the test wells, with 2-3 parallel wells per group. A negative control well containing only cells without cytostim was provided to obtain the background reading. The cell culture plate was placed in a incubator at 5% carbon dioxide, 37° C. to incubate for 3 days. The cell culture supernatant was collected 3 days after drug treatment, and centrifuged to remove the suspension. Then, IL-17A in the supernatant was quantified with IL-17A enzyme-linked immunosorbent kit. EC50 values of the test compounds were calculated with GraphPad Prism 6.0.

[3] = for agonist the value refers to Emax(%), read-out: Emax(%)/maximum inhibition rate b: Emax(%) (agonist)

Row | Compound | EC50 [1] [nM] | Type [1] | Emax [1, 3] [%] | EC50 [2] [nM] | IC50 [1] [nM] | Emax ([1]; read-out: Emax(%)/maximum inhibition rate b: maximum inhibition rate (inverse agonist)) [%] | Emax [2] [%]
1 | CCS(=O)(=O)c1ccc([C@H](CO)NC(=O)c2cc3cc(Cc4ccc(Cl)cc4C(F)(F)F)n(CCF)c3cc2F)cc1 [Example 5, (R)-2-(4-Chloro-2-(trifluoromethyl)benzyl)-N-(1-(4-(ethylsulfonyl)phenyl)-2-hydroxyethyl)-6-fluoro-1-(2-fluoroethyl)-1H-indole-5-carboxamide] | 334 | Agonist | 110 | – | – | – | –
2 | CCS(=O)(=O)c1ccc([C@@H](CO)NC(=O)c2ccc3c(c2)cc(Cc2ccc(Cl)cc2C(F)(F)F)n3CCF)cc1 [Example 3, (S)-2-(4-Chloro-2-(trifluoromethyl)benzyl)-N-(1-(4-(ethylsulfonyl)phenyl)-2-hydroxyethyl)-1-(2-fluoroethyl)-1H-indole-5-carboxamide] | – | – | – | 169 | – | – | 136
3 | CCS(=O)(=O)c1ccc(C(CO)NC(=O)c2ccc3c(c2)cc(Cc2ccccc2C(F)(F)F)n3C(C)C)cc1 (stereo not drawn) [Example 1, N-(1-(4-(Ethylsulfonyl)phenyl)-2-hydroxyethyl)-1-isopropyl-2-(2-(trifluoromethyl)benzyl)-1H-indole-5-carboxamide] | 64 | Agonist | 94 | – | – | – | –
4 | CCS(=O)(=O)c1ccc(C(CO)NC(=O)c2ccc3c(c2)cc(Cc2ccc(Cl)cc2C(F)(F)F)n3CCF)cc1 (stereo not drawn) [Example 2, 2-(4-Chloro-2-(trifluoromethyl)benzyl)-N-(1-(4-(ethylsulfonyl)phenyl)-2-hydroxyethyl)-1-(2-fluoroethyl)-1H-indole-5-carboxamide] | – | – | – | 90 | – | – | 82

Now from value to compound, other results behind:

Row | EC50 [1] [nM] | Type [1] | Emax [1, 3] [%] | EC50 [2] [nM] | IC50 [1] [nM] | Emax ([1]; read-out: Emax(%)/maximum inhibition rate b: maximum inhibition rate (inverse agonist)) [%] | Compound | Emax [2] [%]
5 | 124 | Agonist | 109 | – | – | – | O=C(N[C@@H](CO)c1ccc(S(=O)(=O)C2CC2)cc1)c1ccc2c(c1)cc(Cc1ccc(Cl)cc1C(F)(F)F)n2CCF [Example 15, (R)-2-(4-Chloro-2-(trifluoromethyl)benzyl)-N-(1-(4-(cyclopropylsulfonyl)phenyl)-2-hydroxyethyl)-1-(2-fluoroethyl)-1H-indole-5-carboxamide] | –
6 | – | Inverse agonist | – | – | 29 | 67 | CCS(=O)(=O)c1ccc([C@H](CO)NC(=O)c2ccc3c(c2)cc(Cc2ccc(C(F)(F)F)cc2)n3CCF)cc1 [Example 17, (R)-2-(4-(trifluoromethyl)benzyl)-N-(1-(4-(ethylsulfonyl)phenyl)-2-hydroxyethyl)-1-(2-fluoroethyl)-1H-indole-5-carboxamide] | –
7 | 18 | Agonist | 97 | 8 | – | – | CCS(=O)(=O)c1ccc([C@H](COC)NC(=O)c2ccc3c(c2)cc(Cc2ccc(Cl)cc2C(F)(F)F)n3CCF)cc1 [Example 16, (R)-2-(4-Chloro-2-(trifluoromethyl)benzyl)-N-(1-(4-(ethylsulfonyl)phenyl)-2-methoxyethyl)-1-(2-fluoroethyl)-1H-indole-5-carboxamide] | 99
8 | 80 | Agonist | 84 | – | – | – | CCS(=O)(=O)c1ccc([C@H](CO)NC(=O)c2ccc3c(c2)cc(CN2CCOCC2C(F)(F)F)n3CCF)cc1 (stereo partly drawn) [Example 7, N—((R)-1-(4-(Ethylsulfonyl)phenyl)-2-hydroxyethyl)-1-(2-fluoroethyl)-2-((3-(trifluoromethyl)morpholino)methyl)-1H-indole-5-carboxamide] | –
9 | 79 | Agonist | 105 | – | – | – | CCS(=O)(=O)c1ccc([C@H](CO)NC(=O)c2cc3cc(Cc4ccc(Cl)cc4C(F)(F)F)n(C4CC4)c3cc2F)cc1 [Example 6, (R)-2-(4-Chloro-2-(trifluoromethyl)benzyl)-1-cyclopropyl-N-(1-(4-(ethylsulfonyl)phenyl)-2-hydroxyethyl)-6-fluoro-1H-indole-5-carboxamide] | –
